This is an account of results in EP0469548B1, “4-Amino-delta4-steroids and their use as 5alpha-reductase inhibitors” (MERRELL PHARMACEUTICALS INC., priority 1990, dated 1992).

As usually defined, the IC50 is the concentration that gives 50% inhibition.

For this assay, the target named is T1, steroid 5α-reductase enzyme (Homo sapiens, UniProt P31213).
T1 construct: Microsomal preparations of the steroid 5α-reductase enzyme (protein) were obtained from human prostate tissue; from tissue; host or cells: human prostate tissue (microsomal preparation)
T1 sequence (P31213 1-254): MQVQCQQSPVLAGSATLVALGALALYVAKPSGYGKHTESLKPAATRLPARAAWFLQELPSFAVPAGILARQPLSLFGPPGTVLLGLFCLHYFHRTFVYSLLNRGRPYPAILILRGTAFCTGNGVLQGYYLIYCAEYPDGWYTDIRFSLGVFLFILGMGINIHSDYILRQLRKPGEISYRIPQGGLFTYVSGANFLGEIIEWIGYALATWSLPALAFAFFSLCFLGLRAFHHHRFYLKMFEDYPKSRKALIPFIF
As to the kind of experiment: 5α-reductase inhibition in microsomal preparations (conversion of testosterone to dihydrotestosterone, HPLC). It is filed as biochemical. As for the experimental part:
Microsomal preparations of the steroid 5α-reductase enzyme (protein) were obtained from human prostate tissue and stored in aliquots. Protein concentration was determined prior to use of the samples. In the method itself, individual assays for 5α-reductase activity contained 0.1M phosphate citrate buffer, pH 5.6, 1mM EDTA, 7 to 22 µg of microsomal protein, 1mM NADPH, 5 mM glucose-6-phosphate, 1 IU/ml glucose-6-phosphate dehydrogenase, 1,2-³H-testosterone, and test compound, dissolved in dimethyl sulfoxide and then diluted in phosphate-citrate buffer to yield a final assay concentration of 0.1% (v/v) dimethyl sulfoxide. The same buffer and the same quantity of dimethyl sulfoxide, without any test compound was used for the control assays. The total assay volume was 100 µl and assays were performed in duplicate. The reaction was initiated by the addition of the testosterone, and incubated for 30 minutes at 25°C. The assay is linear with time to 30 minutes.
Depending on the nature of the inhibition, testosterone concentration was typically varied from 0.15 µM (approximately 0.5 Km) to 10 Km with radioactive label constant at 0.15 µCi per assay. The amount of test compound added was varied to provide final concentrations of 1 nM to 100 µM. The reaction was quenched by the addition of 50 volumes of chloroform:methanol (2:1). The steroids were then extracted and separated by high pressure liquid chromatography and the amounts of testosterone and dihydrotestosterone present were measured to determine the percent conversion of testosterone to dihydrotestosterone and to calculate the 5α-reductase activity. The activity of the test compound was then expressed as the IC₅₀, or the concentration of test compound that produced a 50% inhibition of the testosterone conversion. When compounds of the present invention were tested in this way, the following results were observed: […]
As for `C[C@H](CO)[C@H]1CC[C@H]2[C@@H]3CCC4=C(N)C(=O)CC[C@]4(C)[C@H]3CC[C@]12C` [(20S)-4-Amino-21-hydroxy-20-methylpregn-4-en-3-one], the IC50 is 54 nM. That is a double-digit nanomolar value.
Next, `CC(C)(C)NC(=O)[C@H]1CC[C@H]2[C@@H]3CCC4=C(N)C(=O)CC[C@]4(C)[C@H]3CC[C@]12C` [4-Amino-N-(1,1-dimethylethyl)-3-oxoandrost-4-ene-17β-carboxamide]: 59 nM; `CC(C)N(C(=O)[C@H]1CC[C@H]2[C@@H]3CCC4=C(N)C(=O)CC[C@]4(C)[C@H]3CC[C@]12C)C(C)C` [4-Amino-N,N-bis(1-methylethyl)-3-oxoandrost-4-ene-17β-carboxamide]: 104 nM.
Then `CC(=O)[C@H]1CC[C@H]2[C@@H]3CCC4=C(N)C(=O)CC[C@]4(C)[C@H]3CC[C@]12C` [4-Aminopregn-4-ene-3,20-dione], with 50 nM.
